# Earlier results, collected in US20190209502A1, “COMBINATION GEL FOR SEXUALLY TRANSMITTED INFECTIONS” (EVOFEM, INC., priority 2016, published 2019).
# System: HIV
# Conditions: compared with D or racemic lactic acid
compound,measurement,value
"C[C@H](O)C(=O)O [L form of lactic acid, L-(+)-lactic acid]",potency in inactivating HIV,more potent in inactivating HIV than D or racemic lactic acid
